US4913905A, “Transdermal therapeutic systems for active ingredient combinations” (priority 1987, dated 1990)
One block for each compound: values may come before it.

Columns and labels:
[1] = In vitro flux through pig skin in a Franz diffusion cell (saturated ethanolic solution or system of Example 1); settings: for skin permeation in vitro, alcoholic solution: saturated ethanolic solution
Experimental: The flux of progesterone and synthetic progestrone derivatives is measured in vitro as follows:
After 24 hours, an aliquot of the aqueous acceptor solution from the acceptor compartment is examined for content of the relevant progesterone derivative and, from this, the flux in μg cm^2 ×h is calculated.

[2] = Therapeutically effective daily dose (oral / transdermal); format: in vivo; settings: estimated values
[3] = cited from earlier work
endometrium carcinomas = settings: following treatment; numerous studies in the USA; cited from earlier work
[4] = cited from earlier work; remark: listed apart in the source
[5] = vehicle of DE-A No. 3 205 258, e.g. ethanol gel; systems of acceptable size; cited from earlier work

skin permeation in vitro, alcoholic solution ([1]; pig skin, 24 hours): 0.028 μg/cm^2 · h
Compound: C#C[C@]1(O)CC[C@H]2[C@@H]3CCC4=CC(=O)CC[C@@H]4[C@H]3CC[C@@]21CC [d-norgestrel]
therapeutically effective daily dose, transdermal [2]: 0.05 mg
therapeutically effective daily dose, oral [3]: 0.07 to 0.15 mg

Compound: CC(=O)O[C@]1(C(C)=O)CC[C@H]2[C@@H]3C[C@H](C)C4=CC(=O)CC[C@]4(C)[C@H]3CC[C@@]21C [medroxyprogesterone acetate]
therapeutically effective daily dose, transdermal [2]: 2 mg
therapeutically effective daily dose, oral [3]: 2.5 to 10 mg

Compound: C#C[C@]1(OC(C)=O)CC[C@H]2[C@@H]3CCC4=CC(=O)CC[C@@H]4[C@H]3CC[C@@]21C [norethisterone acetate, norethisterone-17-acetate]
therapeutically effective daily dose, transdermal [2]: 2 mg
therapeutically effective daily dose, oral [3]: 0.5 to 5 mg

Compound: C#C[C@]1(O)CC[C@H]2[C@@H]3CCC4=CC(=O)CC[C@@H]4[C@H]3CC[C@@]21C [norethisterone]
necessary surface area of system ([1]; estimated values): 350 cm^2
skin permeation in vitro, alcoholic solution ([1]; pig skin, 24 hours): 0.024 μg/cm^2 · h
therapeutically effective daily dose, transdermal [2]: 0.2 mg
therapeutically effective daily dose, oral [3]: 0.5 to 5 mg

Compound: CCCCC(=O)O[C@H]1CC[C@H]2[C@@H]3CCc4cc(O)ccc4[C@H]3CC[C@]12C [oestradiol valerate, estradiol-17-valerate]
times higher incidence of endometrium carcinomas (endometrium carcinomas): 3.3 to 6 times

Compound: C[C@]12CC[C@@H]3c4ccc(O)cc4CC[C@H]3[C@@H]1CC[C@@H]2O [oestradiol, 17β-oestradiol]
resorption following oral administration [4]: unsatisfactory
undesirable side-effects ([4]; oral, high dosage, frequent occurrence): nausea, thromboembolism
metabolisation by the liver ([4]; oral): rapid
times higher incidence of endometrium carcinomas (endometrium carcinomas): 3.3 to 6 times

Compound: CC(=O)[C@H]1CC[C@H]2[C@@H]3CCC4=CC(=O)CC[C@]4(C)[C@H]3CC[C@]12C [progesterone]
skin permeation in vitro, alcoholic solution ([1]; pig skin, 24 hours): 3.0 μg/cm^2 · h
skin permeation in vitro, system according Example 1 ([1]; transdermal therapeutic system according to Example 1, pig skin, 24 hours): 0.073 μg/cm^2 · h
amount that passes through the skin for an adequate therapeutic effect [5]: not sufficient
therapeutically effective daily dose, transdermal [2]: 2 mg
therapeutically effective daily dose, oral [3]: 100 to 300 mg
